For assay [1], the system named is Feline immunodeficiency virus. The assay can be described thus: Antiviral activity against Feline immunodeficiency virus. Format: functional, organism-based.
Assay [2] can be described thus: Antioxidant activity assessed as DPPH radical scavenging activity after 30 mins under dark condition. Format: functional. (Loss of DPPH colour is used to gauge radical scavenging.)
In assay [3] the test system is MCF7. The assay can be described thus: Growth inhibition of human MCF7 cells after 48 hrs by SRB assay. Format: functional. The note with it: MCF7, 48 h. Background: In SRB staining, fixed cells bind dye roughly in proportion to their protein.
For assay [4], the target named is Peroxisome proliferator-activated receptor gamma (Homo sapiens, UniProt P37231). The assay can be described thus: Inhibition of PPARgamma (unknown origin).
Peroxisome proliferator-activated receptor gamma, sequence (P37231 whole entry): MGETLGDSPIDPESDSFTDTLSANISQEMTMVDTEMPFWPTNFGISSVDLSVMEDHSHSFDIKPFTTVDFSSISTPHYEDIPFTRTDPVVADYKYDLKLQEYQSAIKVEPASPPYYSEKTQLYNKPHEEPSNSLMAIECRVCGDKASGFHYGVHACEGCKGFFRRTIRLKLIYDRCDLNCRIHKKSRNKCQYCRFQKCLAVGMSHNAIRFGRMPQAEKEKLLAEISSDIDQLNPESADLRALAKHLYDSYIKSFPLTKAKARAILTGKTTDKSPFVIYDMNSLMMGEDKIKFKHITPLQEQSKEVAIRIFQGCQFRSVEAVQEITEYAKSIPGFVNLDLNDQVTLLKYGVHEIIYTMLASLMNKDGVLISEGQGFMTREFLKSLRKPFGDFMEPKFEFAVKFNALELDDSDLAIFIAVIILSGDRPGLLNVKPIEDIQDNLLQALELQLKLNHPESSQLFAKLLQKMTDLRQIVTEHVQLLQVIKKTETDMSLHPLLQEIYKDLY
The next assay concerns Streptococcus pneumoniae. The assay can be described thus: Antibacterial activity against Streptococcus pneumoniae. The assay is classed as functional.
Another assay deals with Pseudomonas aeruginosa. The assay can be described thus: Antibacterial activity against Pseudomonas aeruginosa. The assay is classed as functional, organism-based.
The subject of assay [5] is Staphylococcus aureus. The assay can be described thus: Antibacterial activity against Staphylococcus aureus. Format: functional, organism-based.
A further assay concerns Bacillus subtilis. The assay can be described thus: Antibacterial activity against Bacillus subtilis. Format: functional, organism-based.
The next assay has as its system Escherichia coli. Nature of the assay: Antibacterial activity against Escherichia coli. Format: functional, organism-based.
The test system of the next assay is Candida albicans. The assay can be described thus: […] activity against Candida albicans. The assay is classed as functional, organism-based.
Assay [6] deals with Quinolone resistance protein NorA (Staphylococcus aureus) (UniProt P0A0J7). Nature of the assay: Inhibition of NorA in Staphylococcus aureus measured after 1 hr by ethidium bromide staining based agar-cartwheel assay method.
Another assay relates to Jurkat. Nature of the assay: Anticancer activity against human Jurkat cells. The assay is classed as functional, cell-based.
A further assay deals with HepG2. Nature of the assay: Growth inhibition of human HepG2 cells by MTT assay. Format: functional.
A further assay deals with HT-29. Nature of the assay: Growth inhibition of human HT-29 cells by MTT assay. Format: functional.
In the next assay the test system is A-431. The assay can be described thus: Anticancer activity against human A431 cells. Format: functional, cell-based.
Another assay concerns NCI-H460. The assay can be described thus: Growth inhibition of human NCI-H460 cells by MTT assay. Format: functional. In general terms: Tetrazolium dyes change colour on reduction, which living cells bring about.
The test system of assay [7] is Rattus norvegicus. The assay can be described thus: Anti-inflammatory activity against carrageenan-induced Albino Wistar rat paw edema model assessed as inhibition of rat paw edema at 10 mg/kg, po pretreated for 1 hr followed by carrageenan addition measured after 1 to 4 hrs relative to control. Format: functional.
Assay [8] relates to Rattus norvegicus. Nature of the assay: Anti-inflammatory activity against carrageenan-induced Albino Wistar rat paw edema model assessed as inhibition of rat paw edema at 50 mg/kg, po pretreated for 1 hr followed by carrageenan addition measured after 1 to 4 hrs relative to control. Format: functional.
Another assay concerns Human gammaherpesvirus 4. The assay can be described thus: Antiviral activity against Epstein-Barr virus. Format: functional, organism-based.
Assay [9] has as its system MCF7. Nature of the assay: Potency index, ratio of doxorubicin IC50 to compound IC50 for human MCF7 cells. Format: functional.
The subject of assay [10] is MCF7. Nature of the assay: Cytotoxicity against human MCF7 cells after 72 hrs by MTT assay. The assay is classed as functional, cell-based. To be noted: MCF7, 72 h.
For assay [11], the target named is Large neutral amino acids transporter small subunit 1 (Homo sapiens, UniProt Q01650). The assay can be described thus: Inhibition of recombinant human LAT1.
Large neutral amino acids transporter small subunit 1, sequence (Q01650 whole entry): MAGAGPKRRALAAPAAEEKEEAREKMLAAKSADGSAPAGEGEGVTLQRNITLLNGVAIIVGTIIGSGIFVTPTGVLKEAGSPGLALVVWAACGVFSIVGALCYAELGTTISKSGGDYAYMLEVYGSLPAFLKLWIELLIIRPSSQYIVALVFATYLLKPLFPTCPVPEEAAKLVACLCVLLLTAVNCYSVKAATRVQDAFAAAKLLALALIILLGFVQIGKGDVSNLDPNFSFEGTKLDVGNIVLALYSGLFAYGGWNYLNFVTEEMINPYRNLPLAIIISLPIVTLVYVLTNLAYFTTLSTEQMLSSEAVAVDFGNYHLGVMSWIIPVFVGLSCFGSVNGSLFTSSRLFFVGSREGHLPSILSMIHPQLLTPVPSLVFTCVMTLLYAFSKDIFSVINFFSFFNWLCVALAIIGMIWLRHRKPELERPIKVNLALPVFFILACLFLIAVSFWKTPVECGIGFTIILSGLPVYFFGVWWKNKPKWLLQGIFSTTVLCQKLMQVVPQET
The subject of assay [12] is Staphylococcus aureus. The assay can be described thus: Antibacterial activity against Staphylococcus aureus ATCC 6538 by broth microdilution method. Format: functional.
Assay [13] relates to Staphylococcus aureus. The assay can be described thus: Antibacterial activity against Staphylococcus aureus ATCC 25923 by broth microdilution method. Format: functional.
Assay [14] relates to Staphylococcus epidermidis. Nature of the assay: Antibacterial activity against Staphylococcus epidermidis ATCC 12228 by broth microdilution method. Format: functional.
In the next assay the test system is Leishmania amazonensis. Nature of the assay: Antileishmanial activity against Leishmania amazonensis promastigotes. The assay is classed as functional, organism-based.
A further assay has as its target Alpha glucosidase (Homo sapiens, UniProt O43451+P10253+P14410+Q2M2H8). The assay can be described thus: Inhibition of alpha-glucosidase (unknown origin) using p-nitrophenyl alpha-d-glucopyranoside as substrate preincubated for 15 mins followed by substrate addition measured after 30 mins by spectrophotometric analysis. Format: protein assay.
Another assay has as its system Klebsiella pneumoniae. The assay can be described thus: Antibacterial activity against Klebsiella pneumoniae. Format: functional, organism-based.
Another assay has as its system Psilocybe cubensis. The assay can be described thus: Antifungal activity Psilocybe cubensis. Format: functional, organism-based.
Another assay has as its system Phytophthora infestans. Nature of the assay: Antifungal activity Phytophthora infestans. The assay is classed as functional, organism-based.
The subject of assay [15] is Rattus norvegicus. Nature of the assay: Anti-inflammatory activity against carrageenan-induced Albino Wistar rat paw edema model assessed as inhibition of rat paw edema at 50 mg/kg, po after 5 hrs relative to control. The assay is classed as functional.
Assay [16] has as its target Prostaglandin G/H synthase 2 (Homo sapiens, UniProt P35354). Nature of the assay: Inhibition of COX2 (unknown origin) by EIA.
The target in assay [17] is 72 kDa type IV collagenase (Homo sapiens, UniProt P08253). Nature of the assay: Inhibition of MMP2 catalytic domain (unknown origin) using Ac-PLG-[2-mercapto-4-methylpentanoyl]-LG-OC2H5 as substrate preincubated for 45 to 120 mins followed by substrate addition measured for 30 mins in 1 min time interval.
72 kDa type IV collagenase, sequence (P08253 whole entry, the tested form may be a part): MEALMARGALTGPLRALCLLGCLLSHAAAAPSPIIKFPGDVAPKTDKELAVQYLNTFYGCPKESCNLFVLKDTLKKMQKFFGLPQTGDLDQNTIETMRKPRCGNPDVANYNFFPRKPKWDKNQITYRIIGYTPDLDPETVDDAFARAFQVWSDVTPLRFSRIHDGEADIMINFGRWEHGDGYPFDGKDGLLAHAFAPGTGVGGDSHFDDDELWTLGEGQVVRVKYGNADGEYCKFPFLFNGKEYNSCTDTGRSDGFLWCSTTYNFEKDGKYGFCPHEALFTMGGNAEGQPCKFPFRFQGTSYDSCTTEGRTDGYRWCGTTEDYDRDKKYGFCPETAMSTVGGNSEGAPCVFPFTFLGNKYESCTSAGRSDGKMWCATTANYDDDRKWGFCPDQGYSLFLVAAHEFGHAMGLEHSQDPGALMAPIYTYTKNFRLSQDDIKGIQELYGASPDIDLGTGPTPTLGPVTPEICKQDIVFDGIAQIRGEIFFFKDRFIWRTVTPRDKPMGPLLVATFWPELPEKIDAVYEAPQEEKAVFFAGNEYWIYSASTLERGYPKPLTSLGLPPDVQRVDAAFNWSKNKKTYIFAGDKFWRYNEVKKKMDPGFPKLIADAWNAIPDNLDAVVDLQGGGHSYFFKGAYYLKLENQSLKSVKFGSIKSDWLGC
The subject of a further assay is RAW264.7. Nature of the assay: Anti-inflammatory activity against mouse RAW264.7 cells assessed as inhibition of LPS-induced NO production at 50 ug/ml relative to control. The arrangement: scale not given: the % may be the effect or the level left. The assay is classed as functional.
The subject of assay [18] is Mycobacterium tuberculosis. Nature of the assay: Antitubercular activity against Mycobacterium tuberculosis. The assay is classed as functional.

This is an account of results in ChEMBL document CHEMBL4406816, “Role of sulphur-heterocycles in medicinal chemistry: An update” (Eur J Med Chem, 2019).

As a reminder, the EC50 is the concentration that produces a half-maximal response. The term IC50 denotes the midpoint of a concentration-inhibition curve. One may read the GI50 as the concentration that inhibits growth by half. Broadly, the inhibition in vivo is how much of the control response was suppressed.

Converted amounts (≈) assume the structure as drawn.

Prostaglandin G/H synthase 2, sequence (P35354 whole entry, the tested form may be a part): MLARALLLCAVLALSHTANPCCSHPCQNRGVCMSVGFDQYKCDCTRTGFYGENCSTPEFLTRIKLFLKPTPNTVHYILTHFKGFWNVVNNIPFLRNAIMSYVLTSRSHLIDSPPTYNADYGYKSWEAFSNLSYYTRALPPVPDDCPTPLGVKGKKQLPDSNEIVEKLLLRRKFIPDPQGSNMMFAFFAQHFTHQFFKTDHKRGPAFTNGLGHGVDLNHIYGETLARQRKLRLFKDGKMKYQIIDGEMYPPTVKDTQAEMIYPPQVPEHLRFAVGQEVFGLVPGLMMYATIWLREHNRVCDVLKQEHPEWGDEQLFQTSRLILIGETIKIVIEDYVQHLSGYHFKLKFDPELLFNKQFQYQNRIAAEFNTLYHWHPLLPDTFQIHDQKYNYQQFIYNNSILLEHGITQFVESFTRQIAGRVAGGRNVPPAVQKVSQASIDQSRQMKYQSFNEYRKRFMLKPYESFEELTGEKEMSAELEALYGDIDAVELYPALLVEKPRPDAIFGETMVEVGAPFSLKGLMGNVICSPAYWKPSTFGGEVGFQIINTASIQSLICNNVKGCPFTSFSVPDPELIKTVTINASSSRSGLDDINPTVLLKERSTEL

Compound `S=c1ssnc1-c1ccccc1` showed an EC50 in assay [1] of 0.023 µM.

On to `COc1ccc(C2SCC(=O)N2c2ccc3nc(Cc4ccc(O)cc4)c(=O)[nH]c3c2)cc1` (configuration not stated), for which the IC50 in assay [2] was found to be 19.6 µM. Compound `N#Cc1ccccc1-c1nnc(-c2ccc(/C=C3\SC(=O)NC3=O)cc2)o1` gave a GI50 in the assay with MCF7 [3] of 0.004 µM. For the compound `CCCCNC(=O)CN1C(=O)S/C(=C/c2ccc(Cl)cc2)C1=O`, in [4], the response was half-maximal at 5.9 µM (EC50). Take `CC1(C)S[C@@H]2[C@H](NC(=O)[C@H](N)c3ccccc3)C(=O)N2[C@H]1C(=O)O` [AMPICILLIN]: in the assay with Streptococcus pneumoniae, the MIC stood at 0.03 µg/mL (≈ 0.0859 µM). Turning to `O=C(N[C@H](CO)[C@H](O)c1ccc([N+](=O)[O-])cc1)C(Cl)Cl` [CHLORAMPHENICOL], the IC50 in the assay with Pseudomonas aeruginosa (Pseudomonas aeruginosa), in the assay on Staphylococcus aureus [5] (Staphylococcus aureus), in the assay with Bacillus subtilis (Bacillus subtilis), with Escherichia coli (Escherichia coli) and in the assay with Candida albicans (Candida albicans) was 22.5 µM in each case. Regarding `O=C(Nc1nc(=S)ss1)c1ccc(Cl)cc1`, in assay [6], the MIC was determined as 0.5 µg/mL (≈ 1.73 µM). Consider `COc1cccc2c1C(=O)c1c(O)c3c(c(O)c1C2=O)C[C@@](O)(C(=O)CO)C[C@@H]3O[C@H]1C[C@H](N)[C@H](O)[C@H](C)O1` [DOXORUBICIN], for which the results for the IC50 in the assay with Jurkat and with A-431 were 45.9 µM and 42.4 µM, respectively. Further, the GI50 with HepG2 was 0.04 µM; in the assay with HT-29 it was 0.05 µM; with NCI-H460, 0.09 µM.

`COc1ccc2c(c1)c(CC(=O)O)c(C)n2C(=O)c1ccc(Cl)cc1` [INDOMETHACIN]: the inhibition in vivo at 10 mg/kg with Rattus norvegicus [7] was found to be 47.7%. With NYSTATIN, the IC50 in the assay with Pseudomonas aeruginosa, in the assay with Staphylococcus aureus [5], with Bacillus subtilis, with Escherichia coli and in the assay with Candida albicans was 7.3 µM throughout. For `C=CCNc1nc(C)c(C2=NN(C(N)=S)[C@H](c3ccc(Cl)cc3)C2)s1`, in the assay on Streptococcus pneumoniae, the MIC is 0.12 µg/mL (≈ 0.306 µM).

Turning to `N#Cc1c(-c2ccc(N3CCOCC3)cc2)csc1NC(=O)CN1CCOCC1`, in the assay with Rattus norvegicus [8], the inhibition in vivo at 50 mg/kg is 58.5%. Compound `COc1ccc([C@H]2c3sc(=O)[nH]c3SC[C@H]2C=O)cc1` yielded an EC50 in the assay with Human gammaherpesvirus 4 of 0.07 µM. `Cc1ccc(Nc2nc(N(C)C)c(C#N)s2)cc1C`: the figures for the IC50 in the assay with Jurkat and in the assay with A-431 were 34.8 µM and 34.3 to 34.8 µM, respectively. Take `O=C(O)c1sc(-c2ccc(Cl)cc2)cc1C1C=C(c2ccccc2)c2c1ncn1c(-c3ccc(Cl)cc3)nnc21` (configuration not stated): the results for the GI50 in the assay on HepG2, with HT-29 and in the assay on NCI-H460 were 0.02 µM, 0.03 µM and 0.05 µM, respectively. Turning to `N#Cc1c(/N=C/c2cc3cc(Br)ccc3[nH]2)sc2c1CCCCC2`, the “Ratio IC50” value in the assay with MCF7 [9] is listed as 3.51. This compound also registered an IC50 with MCF7 [10] of 14.9 µM. Turning to `FC(F)(F)Oc1ccc(/N=c2\ssnc2Cl)nc1`, the IC50 in assay [11] came to 0.98 µM. `O=C(CC1SC(=O)NC1=O)Oc1ccc(/C=C2/SC(=O)NC2=O)cc1Br` (configuration not stated): the MIC against Staphylococcus aureus [12] came out at 3.91 µg/mL (≈ 8.55 µM); with Staphylococcus aureus [13] it was 3.91 µg/mL (≈ 8.55 µM); in assay [14] it was 7.81 µg/mL (≈ 17.1 µM). `O=C1O[C@H]([C@@H](O)CO)C(O)=C1O` [ASCORBIC ACID]: the IC50 in assay [2] is 16.9 µM. For the compound `COc1ccc2nc3cc(Cl)ccc3c(Nc3sc4c(c3C#N)CCC4)c2c1`, the IC50 in the assay on Leishmania amazonensis turned out to be 9.6 µM. Take `COc1ccc(-c2csc(NC(=O)CSc3nnc(-c4ccc(Br)cc4)c(-c4ccc(Br)cc4)n3)n2)cc1`: at Alpha glucosidase, the IC50 was 2.85 µM. The compound GENTAMICIN registered an MIC in the assay on Klebsiella pneumoniae of 0.03 µg/mL.

As for `O=C(c1cccc(Br)c1)N1CCC(c2cc(-c3snc(Cl)c3Cl)ns2)CC1`, the values for the EC50 in the assay on Psilocybe cubensis and in the assay with Phytophthora infestans were 0.046 µg/mL (≈ 0.0914 µM) and 0.27 µg/mL (≈ 0.536 µM), respectively. On to `COc1ccc(-c2nn(-c3ccc(S(C)(=O)=O)cc3)cc2/C=C2\SC(=O)NC2=O)cc1`, for which, in the assay with Rattus norvegicus [15], the inhibition in vivo at 50 mg/kg worked out at 80.2%. The IC50 in [16] amounted to 0.88 µM. As for `O=S(=O)(CC1CS1)c1ccc(-n2cc(-c3ccc(-c4ccncc4)cc3)nn2)cc1` (configuration not stated), the IC50 in [17] is 0.62 µM. `N#Cc1ccc(/N=N/c2ccc(/C=C3\SC(=O)NC3=O)c(/N=N/c3ccc(C#N)cc3)c2O)cc1`: the Activity in the assay on RAW264.7 is 60%. `Fc1ccc(-c2cn(Cc3csc(-c4ccccc4)n3)nn2)cc1`: the MIC in [18] amounted to 8.99 µg/mL (≈ 26.7 µM).
